In PubChem BioAssay AID1918934 (Molecular Pharmacology Branch, DTP, NCI, 2023):
pIC50: −log10 of the molar value.

Tested on: 292921-168-R-J2-PDC complex spheroid viability
Assay: Anticancer human tumor 292921-168-R-J2-PDC patient-derived pancreatic carcinoma cell line growth inhibition
Settings: for pIC50: curve of first compound; for viability, T/C: stronger effect = lower value
Text: Multicellular complex tumor spheroid response to LSD1 Inhibitor Iadademstat in combination with a variety of drugs and investigational agents in selected tumor cell lines
The current study was undertaken to assess response to LSD1 inhibitors in combination with standard-of-care drugs and investigational agents in solid tumor complex spheroid models as well as in the K-562 leukemia. Complex spheroids include a stromal component modeled by human endothelial cells (HUVEC) and fibroblasts modeled by human mesenchymal stem cells (MSCs). The concentration ranges selected for each drug and investigational agent were based upon clinically achievable concentrations if the clinical Cmax of the agent was known.
Compounds. The drugs and investigational agents used in this study are listed on Table 1. All of the agents used, including staurosporine (NSC755774) and gemcitabine (NSC613327), were obtained from the Developmental Therapeutics Program, NCI. FDA-approved anticancer drugs are available from the NCI at http://dtp.nci.nih.gov/branches/dscb/oncology_drugset_explanation.html. Drugs and investigational agents were >95% pure by proton nuclear magnetic resonance (NMR) and liquid chromatography/mass spectrometry (LC/MS). Stock solutions were prepared at 400x in DMSO, stored at -70 degrees C, and diluted in fresh medium prior to their use. The final concentration of DMSO in cell culture wells never exceeded 0.25% (v/v). The FDA-approved anticancer drug set is available from the Developmental Therapeutics Program at https://dtp.cancer.gov/organization/dscb/obtaining/available_plates.htm. All drugs and investigational agents were tested over a range starting from a high concentration at or near the clinical Cmax and decreasing in half-log increments. If the clinical Cmax for an agent had not been determined, the highest concentration tested was 10 microM.
Cell Lines. The patient-derived cancer cell (PDC) lines: 292921-168-R-J2-PDC, K24384-001-R-PDC, and 521955-158-R2-J5-PDC pancreatic carcinomas, 556581-035-R-J1 ovarian carcinoma, 324938-238-R-J1-PDC, 855422-203-R-J1-PDC and 883617-216-R-J1-PDC urothelial bladder carcinomas, 743489-274-T-PDC renal cell carcinoma, 138582-R-J1 Merkel cell tumor, K60290-347-R-J1 and K57222-313-R-J1-PDC glioblastomas, 653999-131-R-J2-PDC, LG0703-F948-PDC, and 349418-098-R-PDC non-small cell lung carcinomas, 885512-296-R-J2-PDC, 171881-019-R-J1-PDC breast carcinomas and 186277-243-T-J2-PDC and 233499-124-R-J2-PDC colon carcinomas were obtained from the NCI Patient-Derived Models Repository (PDMR, https://pdmr.cancer.gov). The established cell lines NCI/ADR-RES (RRID:CVCL_14520 and OVCAR-5 (RRID:CVCL_1628) ovarian carcinomas, 786-O (RRID:CVCL_1051) and A498 (RRID:CVCL_A498) renal cell carcinoma, NCI-H211 (ATCC, cat. CRL-5824; RRID:CVCL_1529), NCI-H196 (ATCC, cat. CRL-5823, RRID:CVCL_1509), SW 1271 (ATCC, cat. CRL-2177, RRID:CVCL_1716) and NCI-H1876 (ATCC, cat. CRL-5902, RRID:CVCL_1503) small cell lung carcinomas, MDA-MB-231 (RRID:CVCL_0062) and MDA-MB-468 (RRID:CVCL_0419)breast carcinomas (10-12). Pooled donor human umbilical vein endothelial cells (HUVEC, Lonza, cat. CC-2519) and human mesenchymal stem cells (hMSC, Lonza, cat. PT-2501) were purchased from Lonza (Walkersville, MD).
Cell Culture. All cells were maintained in an incubator at 37 degrees C and 5% CO2 with 95% humidity. The PDC lines were cultured according to standard operating procedures established by the NCI PDMR (https://pdmr.cancer.gov). Briefly all PDCs were thawed and cultured in Matrigel-coated flasks prepared with a working solution of 1X Ham's F-12 nutrient mix, without supplementation (Invitrogen, Waltham, MA, cat. 11765054), 100 U/mL penicillin-streptomycin (Invitrogen, cat. 15140122), and 2.5% Matrigel (Corning Inc., Corning, NY, cat. 354248) for the first three passages. […]

[1] = second compound 0.1 µM, first compound 0.00316 µM
[2] = second compound 0.1 µM, first compound 0.01 µM
[3] = second compound 0.1 µM, first compound 0.0316 µM
[4] = second compound 0.1 µM, first compound 0.1 µM
[5] = second compound 0.316 µM, first compound 0.00316 µM
[6] = second compound 0.316 µM, first compound 0.01 µM
[7] = second compound 0.316 µM, first compound 0.0316 µM
[8] = second compound 0.316 µM, first compound 0.1 µM
[9] = second compound 1 µM, first compound 0.00316 µM
[10] = second compound 1 µM, first compound 0.01 µM
[11] = second compound 1 µM, first compound 0.0316 µM
[12] = second compound 1 µM, first compound 0.1 µM
[13] = second compound 3.16 µM, first compound 0.00316 µM
[14] = second compound 3.16 µM, first compound 0.01 µM
[15] = second compound 3.16 µM, first compound 0.0316 µM
[16] = second compound 3.16 µM, first compound 0.1 µM
[17] = second compound 10 µM, first compound 0.00316 µM
[18] = second compound 10 µM, first compound 0.01 µM
[19] = second compound 10 µM, first compound 0.0316 µM
[20] = second compound 10 µM, first compound 0.1 µM
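Further: seven day compound exposure before luminescent viability read.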
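Wherever viability, T/C is given: 100% = DMSO vehicle control wells.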

Structure (SMILES): CC[C@@]1(O)C(=O)OCc2c1cc1n(c2=O)Cc2cc3c(CN(C)C)c(O)ccc3nc2-1 + NC1CC1c1ccc(-c2cccc(O)c2)cc1
- pIC50 (second compound 0.1 µM): 8.49
- pIC50 (second compound 0.316 µM): 8.67
- pIC50 (second compound 1 µM): 8.79
- pIC50 (second compound 3.16 µM): 8.67
- pIC50 (second compound 10 µM): 9.43
- viability, T/C (second compound 0.1 µM, first compound 0.000316 µM): 81.3%
- viability, T/C (second compound 0.1 µM, first compound 0.001 µM): 78.9%
- viability, T/C [1]: 48.2%
- viability, T/C [2]: 21.6%
- viability, T/C [3]: 8.58%
- viability, T/C [4]: 3.36%
- viability, T/C (second compound 0.316 µM, first compound 0.000316 µM): 72.8%
- viability, T/C (second compound 0.316 µM, first compound 0.001 µM): 65.3%
- viability, T/C [5]: 41.9%
- viability, T/C [6]: 21%
- viability, T/C [7]: 8.47%
- viability, T/C [8]: 3.37%
- viability, T/C (second compound 1 µM, first compound 0.000316 µM): 61.8%
- viability, T/C (second compound 1 µM, first compound 0.001 µM): 56.7%
- viability, T/C [9]: 41.1%
- viability, T/C [10]: 21.3%
- viability, T/C [11]: 8.54%
- viability, T/C [12]: 4.7%
- viability, T/C (second compound 3.16 µM, first compound 0.000316 µM): 66.4%
- viability, T/C (second compound 3.16 µM, first compound 0.001 µM): 61.9%
- viability, T/C [13]: 44.2%
- viability, T/C [14]: 17.8%
- viability, T/C [15]: 8.75%
- viability, T/C [16]: 3.88%
- viability, T/C (second compound 10 µM, first compound 0.000316 µM): 50.7%
- viability, T/C (second compound 10 µM, first compound 0.001 µM): 46.7%
- viability, T/C [17]: 37.4%
- viability, T/C [18]: 20.5%
- viability, T/C [19]: 9.34%
- viability, T/C [20]: 4.4%

Structure (SMILES): COc1cc(C2c3cc4c(cc3C(OC3OC5COC(C)OC5C(O)C3O)C3COC(=O)C23)OCO4)cc(OC)c1O (stereo not given) + NC1CC1c1ccc(-c2cccc(O)c2)cc1
- pIC50 (second compound 0.1 µM): 7.37
- pIC50 (second compound 0.316 µM): 7.67
- pIC50 (second compound 1 µM): 7.67
- pIC50 (second compound 3.16 µM): 7.86
- pIC50 (second compound 10 µM): > 8.02
- viability, T/C (second compound 0.1 µM, first compound 0.00949 µM): 84.3%
- viability, T/C (second compound 0.1 µM, first compound 0.03 µM): 58.9%
- viability, T/C (second compound 0.1 µM, first compound 0.0949 µM): 30.1%
- viability, T/C (second compound 0.1 µM, first compound 0.3 µM): 19.4%
- viability, T/C (second compound 0.1 µM, first compound 0.949 µM): 7.22%
- viability, T/C (second compound 0.1 µM, first compound 3 µM): 4.45%
- viability, T/C (second compound 0.316 µM, first compound 0.00949 µM): 64.8%
- viability, T/C (second compound 0.316 µM, first compound 0.03 µM): 44.4%
- viability, T/C (second compound 0.316 µM, first compound 0.0949 µM): 25.7%
- viability, T/C (second compound 0.316 µM, first compound 0.3 µM): 18.6%
- viability, T/C (second compound 0.316 µM, first compound 0.949 µM): 8.04%
- viability, T/C (second compound 0.316 µM, first compound 3 µM): 5.02%
- viability, T/C (second compound 1 µM, first compound 0.00949 µM): 64.7%
- viability, T/C (second compound 1 µM, first compound 0.03 µM): 43.3%
- viability, T/C (second compound 1 µM, first compound 0.0949 µM): 27.4%
- viability, T/C (second compound 1 µM, first compound 0.3 µM): 16.4%
- viability, T/C (second compound 1 µM, first compound 0.949 µM): 5.52%
- viability, T/C (second compound 1 µM, first compound 3 µM): 4.94%
- viability, T/C (second compound 3.16 µM, first compound 0.00949 µM): 54.8%
- viability, T/C (second compound 3.16 µM, first compound 0.03 µM): 39.9%
- viability, T/C (second compound 3.16 µM, first compound 0.0949 µM): 24.3%
- viability, T/C (second compound 3.16 µM, first compound 0.3 µM): 15.2%
- viability, T/C (second compound 3.16 µM, first compound 0.949 µM): 7.27%
- viability, T/C (second compound 3.16 µM, first compound 3 µM): 3.74%
- viability, T/C (second compound 10 µM, first compound 0.00949 µM): 44.7%
- viability, T/C (second compound 10 µM, first compound 0.03 µM): 27.4%
- viability, T/C (second compound 10 µM, first compound 0.0949 µM): 23%
- viability, T/C (second compound 10 µM, first compound 0.3 µM): 17.1%
- viability, T/C (second compound 10 µM, first compound 0.949 µM): 6.98%
- viability, T/C (second compound 10 µM, first compound 3 µM): 5.53%

Structure (SMILES): Nc1ncn(C2CC(O)C(CO)O2)c(=O)n1 (stereo not given) + NC1CC1c1ccc(-c2cccc(O)c2)cc1
- pIC50 (second compound 0.1 µM): 6.19
- pIC50 (second compound 0.316 µM): 6.48
- pIC50 (second compound 1 µM): 6.98
- pIC50 (second compound 3.16 µM): 6.77
- pIC50 (second compound 10 µM): 7.04
- viability, T/C [1]: 79.1%
- viability, T/C [2]: 76.2%
- viability, T/C [3]: 71.9%
- viability, T/C [4]: 66.9%
- viability, T/C (second compound 0.1 µM, first compound 0.316 µM): 55%
- viability, T/C (second compound 0.1 µM, first compound 1 µM): 46.5%
- viability, T/C [5]: 74.7%
- viability, T/C [6]: 75%
- viability, T/C [7]: 65.2%
- viability, T/C [8]: 60.4%
- viability, T/C (second compound 0.316 µM, first compound 0.316 µM): 49.6%
- viability, T/C (second compound 0.316 µM, first compound 1 µM): 44.4%
- viability, T/C [9]: 64.8%
- viability, T/C [10]: 52.3%
- viability, T/C [11]: 53.4%
- viability, T/C [12]: 53.2%
- viability, T/C (second compound 1 µM, first compound 0.316 µM): 48%
- viability, T/C (second compound 1 µM, first compound 1 µM): 39.1%
- viability, T/C [13]: 65.2%
- viability, T/C [14]: 63.5%
- viability, T/C [15]: 61.4%
- viability, T/C [16]: 54%
- viability, T/C (second compound 3.16 µM, first compound 0.316 µM): 45.2%
- viability, T/C (second compound 3.16 µM, first compound 1 µM): 38.4%
- viability, T/C [17]: 55%
- viability, T/C [18]: 56.3%
- viability, T/C [19]: 55.3%
- viability, T/C [20]: 47.2%
- viability, T/C (second compound 10 µM, first compound 0.316 µM): 45.4%
- viability, T/C (second compound 10 µM, first compound 1 µM): 39.8%
